System: not listed separately
Assay: Hepatotoxicity in rat assessed as reduction in GPT level at 1.0 mg/mL measured after 48 hrs (reference value: 291 IU/L)
Format: toxicity
Conditions: in vivo

Which Activity does the source give for `C[C@@]1(CO)CC[C@]2(C(=O)O[C@@H]3O[C@H](CO)[C@@H](O)[C@H](O)[C@H]3O)CC[C@]3(C)C(=CC[C@@H]4[C@@]5(C)CC[C@H](O)[C@@](C)(C(=O)O)[C@@H]5CC[C@]43C)[C@@H]2C1` here?
Its Activity is 206 IU/L.

For `CC1(C)CC[C@]2(C(=O)O[C@@H]3O[C@H](CO[C@@H]4O[C@H](CO)[C@@H](O)[C@H](O)[C@H]4O)[C@@H](O)[C@H](O[C@@H]4O[C@H](CO)[C@@H](O)[C@H](O)[C@H]4O)[C@H]3O)CC[C@]3(C)C(=CC[C@@H]4[C@@]5(C)CC[C@H](O)[C@@](C)(C(=O)O)[C@@H]5CC[C@]43C)[C@@H]2C1`, which Activity is on record?
The Activity was 279 IU/L.

With `CC1(C)CC[C@]2(C(=O)O[C@@H]3O[C@H](CO[C@@H]4O[C@H](CO)[C@@H](O)[C@H](O)[C@H]4O)[C@@H](O)[C@H](O)[C@H]3O)CC[C@]3(C)C(=CC[C@@H]4[C@@]5(C)CC[C@H](O[C@@H]6O[C@H](CO)[C@@H](O)[C@H](O)[C@H]6O)[C@@](C)(C(=O)O)[C@@H]5CC[C@]43C)[C@@H]2C1` as the compound, how does the Activity read?
Its Activity is 279 IU/L.

For `CC1(C)CC[C@]2(C(=O)O[C@@H]3O[C@H](CO[C@@H]4O[C@H](CO)[C@@H](O)[C@H](O)[C@H]4O)[C@@H](O)[C@H](O[C@@H]4O[C@H](CO)[C@@H](O)[C@H](O)[C@H]4O)[C@H]3O)CC[C@]3(C)C(=CC[C@@H]4[C@@]5(C)CC[C@H](O[C@@H]6O[C@H](CO)[C@@H](O)[C@H](O)[C@H]6O)[C@@](C)(C(=O)O)[C@@H]5CC[C@]43C)[C@@H]2C1`, which Activity is on record?
Its Activity is 279 IU/L.

Which Activity does the source give for `CC1(C)CC[C@]2(C(=O)O[C@@H]3O[C@H](CO)[C@@H](O)[C@H](O)[C@H]3O)CC[C@]3(C)C(=CC[C@@H]4[C@@]5(C)CC[C@H](O)[C@@](C)(C(=O)O)[C@@H]5CC[C@]43C)[C@@H]2C1` here?
Its Activity is 137 IU/L.

System: L02
Assay: Hepatoprotective activity against D-GaIN-induced cell damage in human HL7702 cells assessed as increase in cell survival at 10 uM relative to control
Format: functional
Conditions: not given

Which Activity does the source give for `C/C(=C/C(=O)CC(C)C(=O)O)[C@H]1CC(=O)[C@@]2(C)C3=C(C(=O)C[C@]12C)[C@@]1(C)CC[C@H](O)C(C)(C)[C@@H]1C[C@@H]3O` (some centres not stated) here?
Its Activity is 65%.

With `CC(CC(=O)C[C@@H](C)[C@H]1C[C@H](O)[C@@]2(C)C3=C(C(=O)C[C@]12C)[C@@]1(C)CC[C@H](O)C(C)(C)[C@@H]1C[C@@H]3O)C(=O)O` (some centres not stated) as the compound, how does the Activity read?
Its Activity is 76%.

System: not listed separately
Assay: Antiproliferative activity against rat HSC-T6 cells assessed as reduction in cell viability incubated for 48 hrs by MTT assay
Format: functional, cell-based
Conditions: HSC-T6, 48 h

With `C[C@@H]1O[C@@H](O[C@H]2[C@H](OC(=O)[C@]34CCC(C)(C)C[C@H]3C3=CC[C@@H]5[C@@]6(C)C[C@H](O)[C@H](O[C@@H]7O[C@H](CO)[C@@H](O)[C@H](O)[C@H]7O)[C@](C)(CO)[C@@H]6CC[C@@]5(C)[C@]3(C)C[C@H]4O)OC[C@H](O)[C@@H]2O)[C@H](O)[C@H](O)[C@H]1O[C@@H]1OC[C@@H](O)[C@H](O[C@@H]2OC[C@](O)(CO)[C@H]2O)[C@H]1O` as the compound, how does the IC50 read?
Its IC50 is 1.04 µM.

With `CC1(C)CC[C@]2(N)C(=O)C[C@]3(C)C(=CC[C@@H]4[C@@]5(C)C[C@H](O)[C@H](O)C(CO)(CO)[C@@H]5CC[C@]43C)[C@@H]2C1` as the compound, how does the IC50 read?
The IC50 was 5.27 µM.

For `CC1(C)CC[C@]2(N)C(=O)C[C@]3(C)C(=CC[C@@H]4[C@@]5(C)C[C@H](O)[C@H](O[C@@H]6O[C@H](CO)[C@@H](O)[C@H](O)[C@H]6O)C(CO)(CO)[C@@H]5CC[C@]43C)[C@@H]2C1`, which IC50 is on record?
Its IC50 is 69.6 µM.

With `C[C@@H]1O[C@@H](O[C@H]2[C@H](OC(=O)[C@]34CCC(C)(C)C[C@H]3C3=CC[C@@H]5[C@@]6(C)C[C@H](O)[C@H](O[C@@H]7O[C@H](CO)[C@@H](O)[C@H](O)[C@H]7O)C(CO)(CO)[C@@H]6CC[C@@]5(C)[C@]3(C)C[C@H]4O)OC[C@H](O)[C@@H]2O)[C@H](O)[C@H](O)[C@H]1O[C@@H]1OC[C@@H](O)[C@H](O)[C@H]1O` as the compound, how does the IC50 read?
Its IC50 is 8.24 µM.

For `C[C@@H]1O[C@@H](O[C@H]2[C@H](OC(=O)[C@]34CCC(C)(C)C[C@H]3C3=CC[C@@H]5[C@@]6(C)C[C@H](O)[C@H](O[C@@H]7O[C@H](CO)[C@@H](O)[C@H](O)[C@H]7O)C(CO)(CO)[C@@H]6CC[C@@]5(C)[C@]3(C)C[C@H]4O)OC[C@H](O)[C@@H]2O)[C@H](O)[C@H](O)[C@H]1O[C@@H]1OC[C@@H](O)[C@H](O[C@@H]2OC[C@](O)(CO)[C@H]2O)[C@H]1O` [PLATYCODIN D], which IC50 is on record?
Its IC50 is 1.77 µM.

For `CC1(C)CC[C@]2(C(=O)O)[C@H](O)C[C@]3(C)C(=CC[C@@H]4[C@@]5(C)C[C@H](O)[C@H](O[C@@H]6O[C@H](CO)[C@@H](O)[C@H](O)[C@H]6O)C(CO)(CO)[C@@H]5CC[C@]43C)[C@@H]2C1`, which IC50 is on record?
The IC50 was 13.4 µM.

System: Hepatocyte
Assay: Hepatoprotective activity against D-GaIN induced liver injury in rat hepatocyte assessed as decrease in ALT level at 30 to 120 uM
Format: functional
Conditions: dose 30-120 µM

For `CC1(C)[C@@H](O[C@@H]2O[C@H](C(=O)O)[C@@H](O)[C@H](O)[C@H]2O[C@@H]2O[C@H](C(=O)O)[C@@H](O)[C@H](O)[C@H]2O)CC[C@]2(C)[C@H]3C(=O)C=C4[C@@H]5C[C@](C)(C(=O)O)CC[C@]5(C)CC[C@@]4(C)[C@]3(C)CC[C@@H]12`, which Activity is on record?
The Activity was 17.1 U/L.

With `C[C@]1(C(=O)O)CC[C@]2(C)CC[C@]3(C)C(=CC(=O)[C@@H]4[C@@]5(C)CC[C@H](O[C@@H]6O[C@H](C(=O)O)[C@@H](O)[C@H](O)[C@H]6O[C@@H]6O[C@H](C(=O)O)[C@@H](O)[C@H](O)[C@H]6O)[C@](C)(CO)[C@@H]5CC[C@]43C)[C@H]2C1` as the compound, how does the Activity read?
Its Activity is 17.1 U/L.

For `CC(=O)O[C@@H]1C[C@](C)(C(=O)O)C[C@H]2C3=CC(=O)[C@@H]4[C@@]5(C)CC[C@H](O[C@@H]6O[C@H](C(=O)O)[C@@H](O)[C@H](O)[C@H]6O[C@@H]6O[C@H](C(=O)O)[C@@H](O)[C@H](O)[C@H]6O)C(C)(C)[C@@H]5CC[C@@]4(C)[C@]3(C)CC[C@@]12C`, which Activity is on record?
The Activity was 16.5 U/L.

System: Hepatocyte
Assay: Hepatoprotective activity against D-GaIN induced liver injury in rat hepatocyte assessed as decrease in LDH level at 30 to 120 uM
Format: functional
Conditions: dose 30-120 µM

With `CC1(C)[C@@H](O[C@@H]2O[C@H](C(=O)O)[C@@H](O)[C@H](O)[C@H]2O[C@@H]2O[C@H](C(=O)O)[C@@H](O)[C@H](O)[C@H]2O)CC[C@]2(C)[C@H]3C(=O)C=C4[C@@H]5C[C@](C)(C(=O)O)CC[C@]5(C)CC[C@@]4(C)[C@]3(C)CC[C@@H]12` as the compound, how does the Activity read?
Its Activity is 253.5 U/L.

For `C[C@]1(C(=O)O)CC[C@]2(C)CC[C@]3(C)C(=CC(=O)[C@@H]4[C@@]5(C)CC[C@H](O[C@@H]6O[C@H](C(=O)O)[C@@H](O)[C@H](O)[C@H]6O[C@@H]6O[C@H](C(=O)O)[C@@H](O)[C@H](O)[C@H]6O)[C@](C)(CO)[C@@H]5CC[C@]43C)[C@H]2C1`, which Activity is on record?
The Activity was 253.5 U/L.

Which Activity does the source give for `CC(=O)O[C@@H]1C[C@](C)(C(=O)O)C[C@H]2C3=CC(=O)[C@@H]4[C@@]5(C)CC[C@H](O[C@@H]6O[C@H](C(=O)O)[C@@H](O)[C@H](O)[C@H]6O[C@@H]6O[C@H](C(=O)O)[C@@H](O)[C@H](O)[C@H]6O)C(C)(C)[C@@H]5CC[C@@]4(C)[C@]3(C)CC[C@@]12C` here?
Its Activity is 242.8 U/L.

System: not listed separately
Assay: Hepatotoxicity in D-GaIN induced in Wistar rat model hepatocyte assessed as reduction in PLA2 level
Format: toxicity, cell-based
Conditions: not given

For `CC1(C)[C@@H](O[C@@H]2O[C@H](C(=O)O)[C@@H](O)[C@H](O)[C@H]2O[C@@H]2O[C@H](C(=O)O)[C@@H](O)[C@H](O)[C@H]2O)CC[C@]2(C)[C@H]3C(=O)C=C4[C@@H]5C[C@](C)(C(=O)O)CC[C@]5(C)CC[C@@]4(C)[C@]3(C)CC[C@@H]12`, which IC50 is on record?
The IC50 was 16.9 µM.

Which IC50 does the source give for `C[C@]1(C(=O)O)CC[C@]2(C)CC[C@]3(C)C(=CC(=O)[C@@H]4[C@@]5(C)CC[C@H](O[C@@H]6O[C@H](C(=O)O)[C@@H](O)[C@H](O)[C@H]6O[C@@H]6O[C@H](C(=O)O)[C@@H](O)[C@H](O)[C@H]6O)[C@](C)(CO)[C@@H]5CC[C@]43C)[C@H]2C1` here?
The IC50 was 3.6 µM.

For `CC(=O)O[C@@H]1C[C@](C)(C(=O)O)C[C@H]2C3=CC(=O)[C@@H]4[C@@]5(C)CC[C@H](O[C@@H]6O[C@H](C(=O)O)[C@@H](O)[C@H](O)[C@H]6O[C@@H]6O[C@H](C(=O)O)[C@@H](O)[C@H](O)[C@H]6O)C(C)(C)[C@@H]5CC[C@@]4(C)[C@]3(C)CC[C@@]12C`, which IC50 is on record?
Its IC50 is 27.1 µM.

— ChEMBL document CHEMBL5260832, “Hepatoprotective natural triterpenoids” (Eur J Med Chem, 2018)
